Measurements: patent publication US20030171293A1, “Neuropeptide receptor and uses thereof” (Pfizer Inc., priority 2002, published 2003)
Where a SMILES comes first, the peptide text is derived from it. Bridges are numbered along the chain shown (N, C = ends). [ ]: non-standard residue; d: D form. dTrp(2-Me) = Cc1[nH]c2ccccc2c1C[C@@H](N)C(=O)O; d2Nal = N[C@H](Cc1ccc2ccccc2c1)C(=O)O; Nle = CCCC[C@H](N)C(=O)O

Assays:
[1] = molecular target: T1, receptor MRGX2 (Homo sapiens, UniProt Q96LB1); assay: Functional assay measuring intracellular calcium mobilisation (FLIPR); type: cell-based; conditions: for EC50: Preliminary EC50 data for receptor MRGX2, transiently transfected cells, Fluo3 calcium response; for response of MRGX2 receptor: at a concentration of 1 μM
T1 construct: expressed in transfected cells; host or cells: host line such as HEK293 or CHO-K1, stably expressing Galpha15/Gqi-5
T1 sequence (Q96LB1 1-330): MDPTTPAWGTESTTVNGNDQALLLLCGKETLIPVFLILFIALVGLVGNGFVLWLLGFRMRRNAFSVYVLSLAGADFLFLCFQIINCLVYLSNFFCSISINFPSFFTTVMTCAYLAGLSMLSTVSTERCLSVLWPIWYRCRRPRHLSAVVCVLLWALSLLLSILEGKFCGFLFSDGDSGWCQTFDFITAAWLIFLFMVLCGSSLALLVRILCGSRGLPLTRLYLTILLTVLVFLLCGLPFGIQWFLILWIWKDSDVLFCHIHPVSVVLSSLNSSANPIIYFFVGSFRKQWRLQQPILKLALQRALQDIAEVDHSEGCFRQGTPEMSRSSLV
Procedure: 5×10^6 cells of a suitable host cell line, chosen to express a low number of endogenous receptors (e.g. HEK293 or CHO-K1) and engineered to stably express Gα15/Gqi-5, were transiently transfected with 7.5 μg of cDNA encoding receptor MRGX2 in a suitable mammalian cell expression vector, or vector alone, using Lipofectamine Plus® reagent (Gibco BRL) as per the manufacturer's protocol. If the cells were intended for a ligand binding assay or microphysiometry, they were incubated for 24-72 hours post transfection, and then harvested. If a microtitre plate-based assay was intended, the cells were detached from the flask using Trypsin/EDTA solution (LTI) 24 hours post transfection, and seeded into e.g. a black sided, Poly-D-lysine-treated, 96-well plate (Becton Dickinson) at 5×10^4 cells/well density. The plates were left overnight to allow the cells to adhere to the bottom of the wells.
Fluorescence Imaging Plate Reader (FLIPR®) technology was employed as a means to detect activation of receptor MRGX2 by various potential GPCR agonists.
24 hrs post-transfection, the cells were detached from the flask using Trypsin/EDTA solution (LTI) and seeded into a black sided, Poly-D-lysine-treated, 96-well plate (Becton Dickinson) at 5×10^4 cells/well density. The plates were left overnight to allow the cells to adhere to the bottom of the wells. The medium was removed from the cells and replaced with 100 μl warm (37° C.) dye loading solution (50 μg Fluo3 (Molecular Probes) in 20 μl DMSO+20% pluronic acid in DMSO, added to 11 ml Dulbecco's Modified Eagles Medium containing 1× Probenecid (100× Probenecid—0.71 g Probenecid was dissolved in 5 ml 1 M NaOH and 5 ml Dulbeccos' Phosphate Buffered Saline (PBS), per plate; Probenecid (Molecular Probes) inhibits activity of the anion transport protein, thus improving dye loading). The plates were then incubated for 1 hr at 37° C. Plates were subsequently washed with 250 μl of wash buffer per well (5 ml 100× Probenecid stock+495 ml PBS, pH 7.4) 4 times. The plates were returned to the 37° C./5%CO2 incubator for 30 mins prior to processing within the FLIPR® instrument. The FLIPR® processing involved reading the fluorescence for all samples for 2 minutes; during this time the fluorescence baseline was determined for 10 seconds. The desired amount of compounds (i.e. potential GPCR agonists) was then automatically transferred to the wells and the fluorescence was continuously monitored for the remainder of the time. All compounds were diluted in wash buffer.

[2] = test system: guinea pig ileum; conditions: GPI assay; cited from earlier work
[3] = test system: food intake; conditions: i.c.v., free feeding rats; maximal response at 1 nmol dose; cited from earlier work

Compound | EC50 [1] [µM] | other results
NCCC[C@@H](NC(=O)[C@@H]1CCCN1C(=O)[C@@H]1CSSCCC(=O)N[C@@H](Cc2ccc(O)cc2)C(=O)N[C@@H](Cc2ccccc2)C(=O)N[C@@H](CCC(N)=O)C(=O)N[C@@H](CC(N)=O)C(=O)N1)C(=O)NCC(N)=O [(Deamino-Cysl,D-Orn^8) Vasopressin] | > 10 | 
CC[C@H](C)[C@H](NC(=O)[C@H](CCCNC(=N)N)NC(=O)[C@H](CCCNC(=N)N)NC(=O)[C@H](CC(C)C)NC(=O)[C@H](Cc1ccccc1)NC(=O)CNC(=O)CNC(=O)[C@@H](N)Cc1ccc(O)cc1)C(=O)N[C@@H](CCCNC(=N)N)C(=O)N1CCC[C@H]1C(=O)N[C@@H](CCCCN)C(=O)N[C@@H](CC(C)C)C(=O)N[C@@H](CCCCN)C(=O)N[C@@H](Cc1c[nH]c2ccccc12)C(=O)N[C@@H](CC(=O)O)C(=O)N[C@@H](CC(N)=O)C(=O)N[C@@H](CCC(N)=O)C(=O)O [Dynorphin A] | 1.85 | potency relative to [Leu]-enkephalin [2]: 700 times; potency relative to normorphine [2]: about 200 times; potency relative to β-endorphin [2]: 50 times
CC(=O)N[C@H]1CSSC[C@@H](C(=O)N2CCC[C@H]2C(=O)N2CCC[C@H]2C(=O)N[C@@H](CCCCN)C(=O)N[C@@H](CC(=O)O)C(N)=O)NC(=O)CNC(=O)[C@H](Cc2c[nH]c3ccccc23)NC(=O)[C@H](CCCNC(=N)N)NC(=O)[C@@H](Cc2ccc3ccccc3c2)NC(=O)[C@H](Cc2c[nH]cn2)NC(=O)[C@H](CCC(=O)O)NC1=O [HS014] (Ac-CEH[d2Nal]RWGCPPKD-NH2; disulfide 1-8; N-terminus and C-terminus assumed) | > 10 | 
CCCC[C@@H]1NC(=O)[C@@H](NC(C)=O)CSSC[C@@H](C(N)=O)NC(=O)CNC(=O)[C@H](Cc2c[nH]c3ccccc23)NC(=O)[C@H](CCCNC(=N)N)NC(=O)[C@@H](Cc2ccc3ccccc3c2)NC(=O)[C@H](Cc2c[nH]cn2)NC(=O)[C@H](CCCNC(=N)N)NC1=O [HS024, (Acetyl-Cys^3,Nle^4,Arg^5,D-2-Nal^7,Cys^11)-α-MSH (3-11) amide] (Ac-C[Nle]RH[d2Nal]RWGC-NH2; disulfide 1-9 (inferred)) |  | effect on food intake [3]: dose dependant increase in food intake
Cc1[nH]c2ccccc2c1C[C@@H](NC(=O)[C@@H](N)Cc1cnc[nH]1)C(=O)N[C@@H](C)C(=O)N[C@@H](Cc1c[nH]c2ccccc12)C(=O)N[C@H](Cc1ccccc1)C(=O)N[C@@H](CCCCN)C(N)=O [Hexarelin] (H-H[dTrp(2-Me)]AW[dF]K-NH2) | 9.5 | 
CC(C)C[C@H](NC(=O)CNC(=O)[C@H](CCC(=O)O)NC(=O)CNC(=O)[C@H](C)N)C(=O)N[C@@H](CC(N)=O)C(=O)N[C@@H](CO)C(=O)N[C@@H](CCC(N)=O)C(=O)N[C@@H](Cc1ccccc1)C(=O)N[C@@H](Cc1c[nH]c2ccccc12)C(=O)N[C@@H](CO)C(=O)N[C@@H](CC(C)C)C(=O)N[C@@H](C)C(=O)N[C@@H](C)C(=O)N1CCC[C@H]1C(=O)N[C@@H](CCC(N)=O)C(=O)N[C@@H](CCCNC(=N)N)C(=O)N[C@@H](Cc1ccccc1)C(N)=O [NPAF] (H-AGEGLNSQFWSLAAPQRF-NH2; N-terminus assumed) | > 10 | 
CC(C)C[C@H](NC(=O)[C@@H](N)CO)C(=O)N[C@@H](C)C(=O)N[C@@H](C)C(=O)N1CCC[C@H]1C(=O)N[C@@H](CCC(N)=O)C(=O)N[C@@H](CCCNC(=N)N)C(=O)N[C@@H](Cc1ccccc1)C(N)=O [NPSF] (H-SLAAPQRF-NH2) | > 10 | 
CC(C)C[C@H](NC(=O)[C@H](CCCCN)NC(=O)[C@H](CCCN=C(N)N)NC(=O)[C@H](C)NC(=O)[C@H](CO)NC(=O)[C@H](CCCCN)NC(=O)[C@H](CCCN=C(N)N)NC(=O)[C@H](C)NC(=O)CNC(=O)[C@@H](NC(=O)[C@H](Cc1ccccc1)NC(=O)CNC(=O)CNC(=O)[C@@H](N)Cc1ccccc1)[C@@H](C)O)C(=O)N[C@@H](C)C(=O)N[C@@H](CC(N)=O)C(=O)N[C@@H](CCC(N)=O)C(=O)O [Nociceptin] | > 10 | 
C[C@@H](O)[C@@H]1NC(=O)[C@H](CCCCN)NC(=O)[C@@H](Cc2c[nH]c3ccccc23)NC(=O)[C@H](Cc2ccccc2)NC(=O)[C@@H](NC(=O)[C@H](N)Cc2ccccc2)CSSC[C@@H](C(=O)N[C@H](CO)[C@@H](C)O)NC1=O [Octreotide] | > 10 | 
α-MSH |  | response of MRGX2 receptor [1]: responds
γ-MSH |  | response of MRGX2 receptor [1]: responds
